Assay results published in ChEMBL document CHEMBL1123682, “5-Amino-4-(diazoacetyl)-1-beta-D-ribofuranosylimidazole, a new antileukemic agent” (J Med Chem, 1987).

Assays:
L1210 = experiment: Ability to inhibit growth of L1210 cells in culture was determined.; assay type: functional, cell-based; conditions: Mus musculus, read-out: I50
HEp-2 = experiment: Ability to inhibit growth of human epithelial (H.Ep.-2) cells in culture; assay type: functional, cell-based; conditions: read-out: I50

IC50 (L1210) [µM]	SMILES	IC50 (HEp-2) [µM]
> 120	CC(=O)c1ncn([C@@H]2O[C@H](CO)[C@@H](O)[C@H]2O)c1N	
3	[N-]=[N+]=CC(=O)C1=NNC([C@@H]2O[C@H](CO)[C@@H](O)[C@H]2O)C1=N (stereo partly drawn)	2
